In patent US20090076047A1, “2-Substituted Hydroxylaminopyrimidine, Method for the Production and the Use Thereof in the Form of Pesticides” (priority 2005, published 2009):

Legend:
Septoria tritici = test: Microtest No. 1: activity against the Septoria leaf spot pathogen Septoria tritici in the microtiter test; format: cell-based; details: 125 ppm, day 7 after inoculation, absorption at 405 nm; active compound-free control = 100%
Experimental: Microtest No. 1—Activity Against the Septoria Leaf Spot Pathogen Septoria tritici in the Microtiter Test The stock solution was pipetted into a microtiter plate (MTP) and diluted with an aqueous malt-based fungus nutrient medium to the stated active compound concentration. An aqueous spore suspension of Septoria tritici was then added. The plates were placed in a water vapor-saturated chamber at temperatures of 18° C. On day 7 after the inoculation, the MTPs were measured in an absorption photometer at 405 nm. The measured parameters were compared to the growth of the active compound-free control variant (100%) and the fungus- and active compound-free blank value to determine the relative growth in % of the pathogens in the individual active compounds.

Pyricularia oryzae = format: cell-based; details: 125 ppm, day 7 after inoculation, absorption at 405 nm; active compound-free control = 100%
Puccinia recondita = test: Curative activity against brown rust of wheat caused by Puccinia recondita (greenhouse); format: in vivo; details: 63 ppm, wheat sprayed 1 day after inoculation (curative), 7 days; untreated control 90% infected
Experimental: The solution was then made up to 100 ml with water. This stock solution was diluted to the active compound concentration stated below using the solvent/emulsifier/water mixture described. Curative Activity Against Brown Rust of Wheat Caused by Puccinia recondita Leaves of potted wheat seedlings of the cultivar “Kanzler” were inoculated with a spore suspension of brown rust (Puccinia recondita). The pots were then placed into a chamber with high atmospheric humidity (90-95%) at 20-22° C. for 24 hours. During this time, the spores germinated and the germ tubes penetrated into the leaf tissue. The next day, the infected plants were sprayed to runoff point with the active compound solution described above having the concentration of active compound stated below. After the spray coating had dried on, the test plants were cultivated in a greenhouse at temperatures between 20 and 22° C. and at 65 to 70% relative atmospheric humidity for 7 days. The extent of the rust fungus development on the leaves was then determined.

[1] = tested on: Erysiphe [syn. Blumeria] graminis forma specialis. tritici; test: Activity against mildew of wheat caused by Erysiphe [syn. Blumeria] graminis forma specialis tritici (greenhouse); format: in vivo, Erysiphe graminis f. sp. tritici; details: 250 ppm, wheat seedlings, protective, assessed after 7 days, % of total leaf area; control 90% infected

Which results are given for `COc1nc(Cl)c(-c2c(F)cc(F)cc2F)c(N(CC2CC2)OC)n1` [Compound 40]?
relative growth (Septoria tritici): 0%; relative growth (Pyricularia oryzae): 0%

For `CON=C(N)c1nc(Cl)c(-c2c(F)cccc2Cl)c(N(CC2CC2)OC)n1` [Compound 33], which infection (Puccinia recondita) is on record?
The infection was 0%.

Which results are given for `CON(c1nc(C#N)nc(Cl)c1-c1c(F)cccc1Cl)C(C)C` [Compound 32]?
relative growth (Septoria tritici): 0%; relative growth (Pyricularia oryzae): 0%

With `CON(CC1CC1)c1nc(C#N)nc(Cl)c1-c1c(F)cccc1F` [Compound 35] as the molecule, how does the infection [1] read?
The infection was 5%.

Which melting point does the source give for `CONC(=N)c1nc(Cl)c(-c2c(F)cc(F)cc2F)c(N2CCCO2)n1` [Compound 17, N-Methoxy-4-chloro-6-(isoxazolidin-2-yl)-5-(2,4,6-trifluorophenyl)-2-pyrimidinecarboximidamide] here?
The melting point was 192 to 193 °C.

With `CC1CCCN(c2nc(-n3cncn3)nc(Cl)c2-c2c(F)cc(F)cc2F)O1` (centres unmarked) [Compound 21, 4-Chloro-6-(6-methyltetrahydro-2H-(1,2)-oxazin-2-yl)-2-(1,2,4-triazol-1-yl)-5-(2,4,6-trifluorophenyl)pyrimidine] as the molecule, how does the melting point read?
The melting point was 141 to 143 °C.
